Assay results published in patent US20040106804A1 (RICHTER GEDEON VEGYESZETI GYAR RT., priority 2001, published 2004).

Details: speed depends on the conditions of the dehydration

Structure (SMILES): OC(Cn1cncn1)(Cn1cncn1)c1ccc(F)cc1F [monohydrate, 2-(2,4-Difluorophenyl)-1,3-bis(1,2,4-triazole-1-yl)-propane-2-ol Monohydrate]
- temperature at which the monohydrate is transformed into anhydrous fluconazole ("anhydrate"): 40-90 °C
